Test results reported in ChEMBL document CHEMBL4346757, “Synthesis and biological evaluation of 7-methoxy-1-(3,4,5-trimethoxyphenyl)-4,5-dihydro-2H-benzo[e]indazoles as new colchicine site inhibitors” (Bioorg Med Chem Lett, 2019).

Assays:
Format in all cases: functional
[1] = tested on: NCI-H322M; assay: Growth inhibition of human NCI-H322M cells assessed as cell growth at 1 uM after 48 hrs by SRB assay relative to control; conditions: read-out: Activity
[2] = tested on: EKVX; assay: Growth inhibition of human EKVX cells assessed as cell growth at 10 uM after 48 hrs by SRB assay relative to control; conditions: read-out: Activity
[3] = tested on: K562; assay: Growth inhibition of human K562 cells assessed as cell growth at 0.01 uM after 48 hrs by SRB assay relative to control; conditions: K562, 48 h, read-out: Activity
[4] = tested on: CCRF-CEM; assay: Cytotoxicity against human CCRF-CEM cells assessed as growth inhibition after 48 hrs by SRB assay
[5] = tested on: SF-268; assay: Growth inhibition of human SF268 cells assessed as cell growth at 10 uM after 48 hrs by SRB assay relative to control; conditions: SF-268, 48 h, read-out: Activity
[6] = tested on: OVCAR-8; assay: Growth inhibition of human OVCAR8 cells assessed as cell growth at 1 uM after 48 hrs by SRB assay relative to control; conditions: OVCAR-8, 48 h, read-out: Activity
[7] = tested on: SW-620; assay: Growth inhibition of human SW620 cells assessed as cell growth at 1 uM after 48 hrs by SRB assay relative to control; conditions: SW-620, 48 h, read-out: Activity
[8] = tested on: M14; assay: Cytotoxicity against human M14 cells assessed as growth inhibition after 48 hrs by SRB assay; conditions: M14, 48 h
[9] = tested on: SF-295; assay: Growth inhibition of human SF295 cells assessed as cell growth at 10 uM after 48 hrs by SRB assay relative to control; conditions: SF-295, 48 h, read-out: Activity
[10] = tested on: Hs-578T; assay: Growth inhibition of human Hs 578T cells assessed as cell growth at 10 uM after 48 hrs by SRB assay relative to control; conditions: read-out: Activity
[11] = tested on: KM12; assay: Growth inhibition of human KM12 cells assessed as cell growth at 1 uM after 48 hrs by SRB assay relative to control; conditions: KM12, 48 h, read-out: Activity
[12] = tested on: MOLT-4; assay: Growth inhibition of human MOLT4 cells assessed as cell growth at 0.01 uM after 48 hrs by SRB assay relative to control; conditions: MOLT-4, 48 h, read-out: Activity
[13] = tested on: PC-3; assay: Growth inhibition of human PC3 cells assessed as cell growth at 10 uM after 48 hrs by SRB assay relative to control; conditions: PC-3, 48 h, read-out: Activity
[14] = tested on: LOX IMVI; assay: Growth inhibition of human LOXIMVI cells assessed as cell growth at 100 uM after 48 hrs by SRB assay relative to control; conditions: read-out: Activity
[15] = tested on: SN12C; assay: Growth inhibition of human SN12C cells assessed as cell growth at 0.01 uM after 48 hrs by SRB assay relative to control; conditions: read-out: Activity
[16] = tested on: K562; assay: Growth inhibition of human K562 cells assessed as cell growth at 0.1 uM after 48 hrs by SRB assay relative to control; conditions: K562, 48 h, read-out: Activity
[17] = tested on: SN12C; assay: Growth inhibition of human SN12C cells assessed as cell growth at 100 uM after 48 hrs by SRB assay relative to control; conditions: read-out: Activity
[18] = tested on: SK-MEL-28; assay: Growth inhibition of human SK-MEL-28 cells assessed as cell growth at 0.01 uM after 48 hrs by SRB assay relative to control; conditions: SK-MEL-28, 48 h, read-out: Activity
[19] = tested on: UACC-257; assay: Cytotoxicity against human UACC257 cells assessed as growth inhibition after 48 hrs by SRB assay; conditions: UACC-257, 48 h
[20] = tested on: OVCAR-5; assay: Growth inhibition of human OVCAR5 cells assessed as cell growth at 0.01 uM after 48 hrs by SRB assay relative to control; conditions: OVCAR-5, 48 h, read-out: Activity
[21] = tested on: UACC-257; assay: Growth inhibition of human UACC257 cells assessed as cell growth at 10 uM after 48 hrs by SRB assay relative to control; conditions: UACC-257, 48 h, read-out: Activity
[22] = tested on: OVCAR-5; assay: Growth inhibition of human OVCAR5 cells assessed as cell growth at 0.1 uM after 48 hrs by SRB assay relative to control; conditions: OVCAR-5, 48 h, read-out: Activity
[23] = tested on: NCI/ADR-RES; assay: Growth inhibition of human NCI-ADR-RES cells assessed as cell growth at 10 uM after 48 hrs by SRB assay relative to control; conditions: read-out: Activity
[24] = tested on: SR; assay: Growth inhibition of human SR cells assessed as cell growth at 0.1 uM after 48 hrs by SRB assay relative to control; conditions: read-out: Activity
[25] = tested on: SK-MEL-28; assay: Growth inhibition of human SK-MEL-28 cells assessed as cell growth at 1 uM after 48 hrs by SRB assay relative to control; conditions: SK-MEL-28, 48 h, read-out: Activity
[26] = tested on: K562; assay: Growth inhibition of human K562 cells assessed as cell growth at 100 uM after 48 hrs by SRB assay relative to control; conditions: K562, 48 h, read-out: Activity
[27] = tested on: UACC-62; assay: Growth inhibition of human UACC62 cells assessed as cell growth at 100 uM after 48 hrs by SRB assay relative to control; conditions: UACC-62, 48 h, read-out: Activity
[28] = tested on: A549; assay: Growth inhibition of human A549/ATCC cells assessed as cell growth at 0.01 uM after 48 hrs by SRB assay relative to control; conditions: A549, 48 h, read-out: Activity
[29] = tested on: HT-29; assay: Cytotoxicity against human HT-29 cells assessed as growth inhibition after 48 hrs by SRB assay; conditions: HT-29, 48 h
[30] = tested on: HT-29; assay: Growth inhibition of human HT-29 cells assessed as cell growth at 0.1 uM after 48 hrs by SRB assay relative to control; conditions: HT-29, 48 h, read-out: Activity
[31] = tested on: RXF 393; assay: Growth inhibition of human RXF393 cells assessed as cell growth at 0.1 uM after 48 hrs by SRB assay relative to control; conditions: RXF 393, 48 h, read-out: Activity
[32] = tested on: RXF 393; assay: Growth inhibition of human RXF393 cells assessed as cell growth at 1 uM after 48 hrs by SRB assay relative to control; conditions: RXF 393, 48 h, read-out: Activity
[33] = tested on: SR; assay: Growth inhibition of human SR cells assessed as cell growth at 10 uM after 48 hrs by SRB assay relative to control; conditions: read-out: Activity
[34] = read-out: LC50 (the source's name)
[35] = read-out: pLC50 (the source's name) (converted)

Q: Which results are given for COc1ccc2c(c1)CCc1n[nH]c(-c3cc(OC)c(OC)c(OC)c3)c1-2?
A: growth at 1 µM [1]: 42%; growth at 10 µM [2]: 37%; growth at 0.01 µM [3]: 19%; GI50 ([4]; read-out: GI50): < 0.01 µM; CC50 [4, 34]: > 100 µM; TGI ([4]; read-out: TGI): > 100 µM; GI50 ([4]; read-out: pGI50 (converted)): < 0.01 µM; CC50 [4, 35]: > 100 µM; TGI ([4]; read-out: pTGI): > 100 µM; growth at 10 µM [5]: 18%; growth at 1 µM [6]: 10%; growth at 1 µM [7]: 14%; GI50 ([8]; read-out: GI50): < 0.01 µM; LC50 ([8]; read-out: LC50): 58.7 µM; TGI ([8]; read-out: TGI): 10.9 µM; GI50 ([8]; read-out: pGI50 (converted)): < 0.01 µM; LC50 ([8]; read-out: pLC50 (converted)): 58.9 µM; TGI ([8]; read-out: pTGI (converted)): 11 µM; growth at 10 µM [9]: -5%; growth at 10 µM [10]: 9%; growth at 1 µM [11]: 5%; growth at 0.01 µM [12]: 41%; growth at 10 µM [13]: 14%; growth at 100 µM [14]: -91%; growth at 0.01 µM [15]: 39%; growth at 0.1 µM [16]: 19%; growth at 100 µM [17]: -47%; growth at 0.01 µM [18]: 53%; CC50 [19, 34]: > 100 µM; TGI ([19]; read-out: TGI): 34.2 µM; CC50 [19, 35]: > 100 µM; TGI ([19]; read-out: pTGI (converted)): 33.9 µM; growth at 0.01 µM [20]: 56%; growth at 10 µM [21]: 56%; growth at 0.1 µM [22]: 54%; growth at 10 µM [23]: -11%; growth at 0.1 µM [24]: 18%; growth at 1 µM [25]: 54%; growth at 100 µM [26]: 7%; growth at 100 µM [27]: -76%; growth at 0.01 µM [28]: 14%; GI50 ([29]; read-out: GI50): < 0.01 µM; CC50 [29, 34]: 49.9 µM; TGI ([29]; read-out: TGI): 10.1 µM; GI50 ([29]; read-out: pGI50 (converted)): < 0.01 µM; CC50 [29, 35]: 50.1 µM; TGI ([29]; read-out: pTGI (converted)): 10 µM; growth at 0.1 µM [30]: 2%; growth at 0.1 µM [31]: -2%; growth at 1 µM [32]: 6%; growth at 10 µM [33]: 9%
